{
  "source": "patent US20260184713A1",
  "about": "“KINASE INHIBITORS” (The United States of America, as represented by the …, priority 2022, published 2026)",
  "format_in_all_cases": "biochemical",
  "key": {"[1]": {"tested_on": "Luciferase", "experiment": "luciferase assay without PKA (Luciferase Only)", "from_the_text": ". Therefore, a competitive kinetic study was further conducted to investigate how 1 interacted with the PKA protein. […]. Thus, all the results supported that 1 was likely to function as an ATP-competitive inhibitor by direct interacting with the PKA catalytic unit (see FIGS. 2A-2B)."}, "[2]": {"biological_target": "T1, STK39/STLK3 (Homo sapiens, UniProt Q9UEW8)", "T1 construct": "purchased Reaction Biology Corp", "experiment": "HOTSPOT radiometric kinase assay", "details": "2 μM, 10 μM ATP"}, "[3]": {"biological_target": "T2, PKCε (Homo sapiens, UniProt Q02156)", "T2 construct": "purchased Reaction Biology Corp", "T2 sequence (Q02156 whole entry)": "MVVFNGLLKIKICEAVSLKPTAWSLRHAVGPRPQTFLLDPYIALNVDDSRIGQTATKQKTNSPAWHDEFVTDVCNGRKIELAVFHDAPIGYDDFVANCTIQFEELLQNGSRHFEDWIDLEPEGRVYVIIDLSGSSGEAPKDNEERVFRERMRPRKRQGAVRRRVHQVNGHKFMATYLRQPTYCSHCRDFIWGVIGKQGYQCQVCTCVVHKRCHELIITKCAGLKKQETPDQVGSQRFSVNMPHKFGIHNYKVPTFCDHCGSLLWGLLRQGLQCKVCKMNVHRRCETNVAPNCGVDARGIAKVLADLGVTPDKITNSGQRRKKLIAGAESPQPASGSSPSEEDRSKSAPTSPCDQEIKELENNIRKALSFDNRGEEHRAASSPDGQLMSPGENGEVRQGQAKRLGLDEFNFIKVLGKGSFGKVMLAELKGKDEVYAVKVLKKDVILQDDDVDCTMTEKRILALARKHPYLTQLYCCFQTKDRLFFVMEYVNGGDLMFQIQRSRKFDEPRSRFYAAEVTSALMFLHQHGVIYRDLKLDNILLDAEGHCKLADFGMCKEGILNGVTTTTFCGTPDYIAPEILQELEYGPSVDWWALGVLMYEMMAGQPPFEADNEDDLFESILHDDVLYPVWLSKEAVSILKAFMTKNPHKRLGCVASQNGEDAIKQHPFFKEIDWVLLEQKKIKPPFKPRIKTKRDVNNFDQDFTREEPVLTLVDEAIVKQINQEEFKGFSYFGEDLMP", "experiment": "HOTSPOT radiometric kinase assay", "details": "10 μM ATP"}, "[4]": {"biological_target": "T3, WNK1 (Homo sapiens, UniProt Q9H4A3)", "T3 construct": "purchased Reaction Biology Corp", "T3 sequence (Q9H4A3 whole entry)": "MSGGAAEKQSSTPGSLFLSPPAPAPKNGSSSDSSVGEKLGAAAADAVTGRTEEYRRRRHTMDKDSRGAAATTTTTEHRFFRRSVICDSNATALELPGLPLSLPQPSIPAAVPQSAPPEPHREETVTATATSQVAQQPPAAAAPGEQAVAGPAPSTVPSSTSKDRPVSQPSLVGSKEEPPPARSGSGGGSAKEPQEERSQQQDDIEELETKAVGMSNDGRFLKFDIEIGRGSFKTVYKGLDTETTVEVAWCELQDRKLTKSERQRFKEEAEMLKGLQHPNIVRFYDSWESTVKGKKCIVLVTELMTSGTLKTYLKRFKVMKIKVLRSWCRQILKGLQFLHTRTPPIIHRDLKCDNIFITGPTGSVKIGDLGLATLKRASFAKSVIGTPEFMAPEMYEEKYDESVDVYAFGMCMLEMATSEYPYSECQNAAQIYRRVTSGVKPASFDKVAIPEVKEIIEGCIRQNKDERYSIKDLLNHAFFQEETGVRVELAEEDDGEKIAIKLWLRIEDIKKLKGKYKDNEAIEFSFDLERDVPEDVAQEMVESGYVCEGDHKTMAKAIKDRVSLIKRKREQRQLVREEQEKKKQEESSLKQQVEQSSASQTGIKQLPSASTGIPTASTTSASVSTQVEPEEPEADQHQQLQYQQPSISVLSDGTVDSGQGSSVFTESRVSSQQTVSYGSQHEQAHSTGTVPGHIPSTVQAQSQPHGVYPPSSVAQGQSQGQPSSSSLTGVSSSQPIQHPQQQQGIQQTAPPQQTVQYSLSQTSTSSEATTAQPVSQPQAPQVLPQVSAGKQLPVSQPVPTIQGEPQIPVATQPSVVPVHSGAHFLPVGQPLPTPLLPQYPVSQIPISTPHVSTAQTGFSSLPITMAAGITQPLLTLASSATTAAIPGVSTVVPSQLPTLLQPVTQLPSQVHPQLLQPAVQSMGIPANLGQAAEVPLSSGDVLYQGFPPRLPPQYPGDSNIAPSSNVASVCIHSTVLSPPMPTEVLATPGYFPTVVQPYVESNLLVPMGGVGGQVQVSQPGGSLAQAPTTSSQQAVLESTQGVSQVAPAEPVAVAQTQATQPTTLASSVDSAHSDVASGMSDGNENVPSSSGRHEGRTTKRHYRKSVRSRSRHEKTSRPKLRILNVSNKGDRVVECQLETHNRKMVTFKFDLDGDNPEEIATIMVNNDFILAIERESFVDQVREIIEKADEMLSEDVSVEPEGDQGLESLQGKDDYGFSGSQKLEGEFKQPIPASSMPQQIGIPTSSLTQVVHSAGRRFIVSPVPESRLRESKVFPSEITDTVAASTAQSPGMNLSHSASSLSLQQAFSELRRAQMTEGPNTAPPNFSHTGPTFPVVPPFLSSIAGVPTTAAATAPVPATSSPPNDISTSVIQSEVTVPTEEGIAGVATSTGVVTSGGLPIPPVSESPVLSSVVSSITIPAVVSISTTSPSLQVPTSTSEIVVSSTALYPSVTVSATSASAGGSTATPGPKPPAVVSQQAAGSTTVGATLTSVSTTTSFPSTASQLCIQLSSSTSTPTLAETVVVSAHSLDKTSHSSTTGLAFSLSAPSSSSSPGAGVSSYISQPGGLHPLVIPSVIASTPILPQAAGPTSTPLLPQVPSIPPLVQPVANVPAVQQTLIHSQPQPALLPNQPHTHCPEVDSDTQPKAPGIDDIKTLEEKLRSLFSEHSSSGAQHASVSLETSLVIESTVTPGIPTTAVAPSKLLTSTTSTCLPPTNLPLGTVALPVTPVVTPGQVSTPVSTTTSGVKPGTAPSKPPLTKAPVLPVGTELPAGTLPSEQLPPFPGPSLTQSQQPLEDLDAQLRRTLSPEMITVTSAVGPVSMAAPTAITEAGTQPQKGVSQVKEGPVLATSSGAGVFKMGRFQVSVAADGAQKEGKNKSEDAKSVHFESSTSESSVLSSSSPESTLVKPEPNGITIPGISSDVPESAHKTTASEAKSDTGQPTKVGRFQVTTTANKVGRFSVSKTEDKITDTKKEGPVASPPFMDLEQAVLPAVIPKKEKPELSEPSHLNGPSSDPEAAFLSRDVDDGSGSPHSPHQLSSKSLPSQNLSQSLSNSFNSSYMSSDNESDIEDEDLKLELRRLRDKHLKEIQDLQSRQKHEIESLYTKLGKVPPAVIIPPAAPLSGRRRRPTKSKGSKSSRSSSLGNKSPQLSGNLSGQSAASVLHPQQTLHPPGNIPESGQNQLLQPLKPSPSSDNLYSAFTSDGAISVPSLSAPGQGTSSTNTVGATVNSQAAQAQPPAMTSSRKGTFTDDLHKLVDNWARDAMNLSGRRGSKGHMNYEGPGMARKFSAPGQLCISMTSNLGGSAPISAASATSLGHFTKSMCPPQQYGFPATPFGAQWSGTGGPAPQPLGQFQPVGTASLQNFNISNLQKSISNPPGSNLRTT", "experiment": "HOTSPOT radiometric kinase assay", "details": "10 μM ATP"}},
  "data": [
    {"smiles": "Cn1cncc1C1=CN(c2ncnc3nc[nH]c23)CCS1", "note": "[Compound 1, Aplithianine A]", "values": [
      {"measurement": "activity when PKA was absent in the assay", "setting": "[1]", "result": "no activity was observed"},
      {"measurement": "inhibition at 2 µM", "setting": "[2]", "result": 87.3, "unit": "%"},
      {"measurement": "inhibition at 0.05 µM", "setting": "[3]; 50 nM", "result": 25.8, "unit": "%"},
      {"measurement": "inhibition at 2 µM", "setting": "[3]; 2 μM", "result": 92.7, "unit": "%"},
      {"measurement": "inhibition at 0.05 µM", "setting": "[4]; 50 nM", "result": 14.1, "unit": "%"},
      {"measurement": "inhibition at 2 µM", "setting": "[4]; 2 μM", "result": 10.7, "unit": "%"}
    ]}
  ]
}
